Measurements from patent US11459375B2, “Cyclic peptides for the treatment of Graves' disease” (advanceCOR GmbH, priority 2017, dated 2022).

Assays:
Ad-TSHR-immunized mice [1] = test: thyroid size at end of experiment in Graves' disease mouse model; assay type: in vivo, BALB/c mice; conditions: 1 mg/kg IV 4-weekly
Experimental: Representative images are shown. In FIG. 4B, the effects of peptide therapy on thyroid sizes were investigated at the end of the experiment. The measurements were carried out in Ad-TSHR-immunized mice treated by either 4-weekly injections with vehicle (0.9% NaCl, “Graves' no therapy”, n=25 mice), or administrations of 1 mg/kg body weight of peptide of the invention 836 (12 mice), or of peptide 829 (13 mice), or of TSHR-Fc (18 mice), or of control peptide 835 (13 mice). In addition, age-matched immunologically naïve unimmunized mice (“healthy”, 19 animals) were investigated. The mean thyroid sizes in mm^3 are shown with SEM. Differences between groups were tested by AVOVA followed by post hoc LSD testing. ** indicates statistical significance (p<0.001) compared to the TSHR-immunized group treated with only NaCl (“Graves' no therapy”).
(§1) The study protocol used three 3-weekly immunizations (“initiation”) and followed by a “maintenance” phase with further regular 4-weekly boosts until the 9th immunisation, as described before (22). Mice were randomly assigned to therapeutic groups. Therapy (either 1 mg/kg body weight peptides or 0.9% NaCl vehicle control) was given 1 week after the 4th immunization by IV injection into a tail vein, and then continued at 4-weekly intervals, as described before for the treatment of anti-β1AR (16). The fusion protein TSHR-Fc was given IV at identical times at doses of 1 mg/kg, but had to be applied together with the histamine receptor blocker clemastin (Tavegil®) at a dose of 0.02 mg per mouse (25 g body weight) to avoid clinical symptoms of allergic reaction, which had been observed in initial pilot studies of TSHR-Fc administration in mice.
After euthanasia, dissection of the thyroid glands was performed under a stereomicroscope, as described before (22). Briefly, cross cuts at the level above the larynx and below the seventh cartilage ring were made and the glands with the tracheae and oesophagi were removed from the necks. Tissue blocks were kept in 4% neutral para-formaldehyde (PFA), washed in PBS 3 times and embedded in optimum cutting temperature (OCT) formulation (Tissue-Tek® O.C.T.™ compound, VWR Chemicals, Leuven, Belgium). Consecutive 5 μm-thick cross sections were cut at a fixed distance of 500 μm using a Leica microtome CM 1850 Cryostat (temperature at −19° C.) and mounted on Thermo Polysine slides (Thermo Scientific, Cat J2800AMNZ). […] Thyroid volumes (mm^3) were calculated from the sum of the areas of each section over the whole cutting region. Myocardial volumes (mm^3) were calculated in a similar way as described for thyroid glands from the sum of the areas of each section over whole cutting region (5 to 6 slides, depending on respective size of the hearts). […]

Ad-TSHR-immunized mice [2] = test: serum thyroxin (T4) levels in Graves' disease mouse model; assay type: in vivo, BALB/c mice; conditions: 1 mg/kg IV 4-weekly, after start of therapy (week 11)
Experimental: In FIG. 5 the effects of peptide therapy on serum thyroxin levels were evaluated. The measurements were carried out in Ad-TSHR-immunized mice treated by either 4-weekly injections with vehicle (0.9% NaCl, “Graves' no therapy”, n=25 mice), or administrations of 1 mg/kg body weight of peptide of the invention 836 (12 mice), or of peptide 829 (13 mice), or TSHR-Fc (18 mice), or of control peptide 835 (13 mice). In addition, age-matched immunologically naïve unimmunized mice (“healthy”, 19 animals) were investigated. Data are represented as means±SEM. Significance over time was tested by analysis of variance (ANOVA) of groups at given time points, and controlled by ANOVA for repeated measurements within one group, followed by LSD post-hoc testing. *p<0.05, and **p<0.005, compared to the TSHR-immunized group treated with only NaCl (“Graves' no therapy”).
as §1
Total thyroxine (T4) was measured by immunoassay kit (#T4044T-100, Calbiotech Inc, Austin, Calif.) in duplicate determination.

[3] = assay type: physicochemical
Text: Peptide 836 is a 24-meric cyclic peptide corresponding to the eighth TSHR LRD loop, and peptide 829 (also 24-meric) to the first loop of the TSHR LRD.

Ad-TSHR-immunized mice [4] = test: ECG heart rates in Graves' disease mouse model; assay type: in vivo, BALB/c mice; conditions: 1 mg/kg IV 4-weekly, ECG under anaesthesia
Experimental: (§2) In FIG. 7 the effect of the peptide therapy on heart rates at various times during the experiment (A), and on heart weights (B) and cardiac ventricular volumes (C) at the end of the experiment were evaluated in all animals. The measurements were carried out in Ad-TSHR-immunized mice treated by either 4-weekly injections with vehicle (0.9% NaCl, “Graves' no therapy”, n=25 mice), or administrations of 1 mg/kg body weight of peptide of the invention 836 (12 mice), or of peptide 829 (13 mice), or TSHR-Fc (18 mice). In addition, age-matched immunologically naïve unimmunized mice (“healthy”, 19 animals) were investigated. Data are represented as mean±SEM. Significance over time was tested by analysis of variance (ANOVA) of groups at given time points, and controlled by ANOVA for repeated measurements within one group, followed by LSD post-hoc testing. *p<0.05, and **p<0.005, compared to the TSHR-immunized group treated with only NaCl (“Graves' no therapy”).
When mice were subjected to anaesthesia for immunisation, their heart function was monitored with an electrocardiogram (ECG amplifier module, Harvard Apparatus, Hugo Sachs electronics) and recorded with a special software, which allows to determine the heart rate from the ECG reading (Haemodyn, Hugo Sachs electronics). ECG was also performed in anaesthesia before animals were euthanized for histological exam at the end of the study.

Ad-TSHR-immunized mice [5] = test: heart weights upon necropsy; assay type: in vivo, BALB/c mice; conditions: 1 mg/kg IV 4-weekly, necropsy at end of experiment
Experimental: as §2
Due to unavailability of some fine histological sections, analysis of this parameter in mice treated with other peptides could unfortunately not be completed.

In the case of NAFQGLCNETLTLKLYNNGFTSVQ [peptide 835], the thyroid size (Ad-TSHR-immunized mice [1]) is reported as “did not show any effects”, the “serum thyroxin (T4) levels” value (Ad-TSHR-immunized mice [2]) is reported as “did not result in any effects” and the solubility in water [3] is reported as “easily soluble in water”. The heart rate (Ad-TSHR-immunized mice [4]) was “did not show any effects” and the heart weights (Ad-TSHR-immunized mice [5]) was “did not show any effects”.
